≈ marks a conversion by molar mass, not a printed value. Where two headings read alike, the source gives them in different places.
Legend:
[1] = In vitro permeation experiment of FP drug-in-adhesive patches in two-chamber diffusion cells; format: in vitro ADME, rabbit; conditions: for Tlag of S-FP / Js of S-FP / ER (Q24h with enhancer/Q24h without enhancer) for S-FP: permeant S-FP; for Tlag of S-FP / Js of S-FP / ER (Q24h with enhancer/Q24h without enhancer) for R-FP / Tlag of R-FP / Js of R-FP / ER (Q24h with enhancer/Q24h without enhancer) for S-FP / ER (Q24h with enhancer/Q24h without enhancer) for SR-FP / Tlag of SR-FP / Js of SR-FP: patch 5% drug (w/w); for Tlag of S-FP / Js of S-FP / Tlag of R-FP / Js of R-FP / Tlag of SR-FP / Js of SR-FP: enhancer equimolar to 5% 4-TER (control: no enhancer); for Js of S-FP / Js of R-FP / Js of SR-FP: mean ± SD, n = 4; for ER (Q24h with enhancer/Q24h without enhancer) for R-FP / Tlag of R-FP / Js of R-FP: permeant R-FP; for ER (Q24h with enhancer/Q24h without enhancer) for R-FP / ER (Q24h with enhancer/Q24h without enhancer) for S-FP / ER (Q24h with enhancer/Q24h without enhancer) for SR-FP: enhancer equimolar to 5% 4-TER; for ER (Q24h with enhancer/Q24h without enhancer) for SR-FP / Tlag of SR-FP / Js of SR-FP: permeant SR-FP
Text: Male, Japanese big-eared rabbits weighting 2.5–3.0 kg were purchased from the animal experimental center of North China University of Science and Technology. The experimental process was in accordance with the ‘Ethical Guide for Laboratory Animal Investigation’ and was approved by the Animal Experimental Center Committee of North China University of Science and Technology. All efforts were made to minimize animal suffering and to limit the number of animals used.
The hair of back skin was removed by clipper and electrical shaver carefully when the rabbits were anesthetized with ether. Full thickness of back skin was excised after the rabbit was sacrificed by injecting air into the ear veins, and the subcutaneous fat tissue was carefully removed using the surgical scissor and scalpel. The integrity of the skin was confirmed by microscopic observation method. The treated rabbit skin was cut into a size of 1.5 cm × 1.5 cm and stored at –80 °C until use. Before use, it needed to be immersed in physiological saline for 20 min to thaw.
Drug-in-adhesive patch (drug loading of 5% by adhesive) was prepared by using solvent evaporation method. An appropriate amount of FP was dissolved in a suitable amount of ethyl acetate, which was later added to the adhesive and mixed thoroughly with a mechanical stirrer. The resulting solution was coated onto release liner (Scotch Pak® 9744, 3M, USA) by using lab coating unit (6025, BLD Instruments Co. Ltd., Guangdong, China). The coated laminate was dried at 50 °C for 15 min. After the solvent had been removed, it was covered with backing laminate (Scotch Pak® 9732, 3M).
Modified two-chamber diffusion cells with an effective diffusion area of 0.95 cm^2 were employed in the in vitro permeation experiment. The cells were kept at 32 °C by the circulated water bath and stirred with magnetic bars at 400 rpm. The dermis side of the skin was attached to one-half of the side-by-side diffusion cells, the FP patch was pressed on the skin with the adhesive side facing the SC, and pH 7.4 PBS was used as the receptor medium. At predetermined time points (2, 4, 6, 8, 10, 12 and 24 h), the receptor solution of 2.0 mL was withdrawn and equal volume PBS was added to maintain a constant volume of receptor solution.
The cumulative amount of each drug permeating per unit area (Q) versus time was plotted. Q24h=(3.5Ci+2.0∑i=1n−1Ci−1)/A
Q was the cumulative skin permeation amount. Ci was the concentration in the receiver compartment at time i, A was the effective diffusion area of diffusion.
The steady-state flux (Js, µg/cm^2/h) was calculated from the slope of linear region of the plot. The lag-time was determined by extrapolating the linear portion of the curve to the abscissa. Js=dQr/Adt
Enhancement ratio (ER) was used to evaluate the activity of the enhancers, which is the ratio of Q24h with enhancer to Q24h without enhancer. ER=Q24h(with enhancer)/Q24h(without enhancer)

[2] = Determination of drug solubility; format: physicochemical; conditions: pure water, 25 °C; for solubility: 48 h
Experimental: The excess SR-FP or its single enantiomer (0.01 g) were sealed to 10 mL of pure water at 25 °C in glass vials and waved for 48 h in constant temperature air bath oscillator […]. Finally, the contents were passed through the 0.45 μm microporous membrane and centrifuged at 10,000 rpm for 5 min, then aliquots for the supernatant saturated solution were diluted and analyzed by HPLC. The experiments were performed in triplicate.

[3] = Determination of drug oil-water partition coefficient (log P); format: physicochemical; conditions: n-octanol/water, 25 °C
Experimental: The same volume of water and n-octanol were mixed and shaken for 24 h at 25 °C, then the equal of water saturated n-octanol solution and n-octanol saturated aqueous solution through liquid-separation were obtained. The SR-FP or its single enantiomer (0.001 g) were added in the saturated solution, which were mixed to the ratio of 1:4, then shook for 24–48 h followed by stand for 24 h. (The shakings were in constant temperature air bath oscillator at 25 °C). Afterwards, the HPLC method was utilized to detect the concentration of the substance in the oil phase and the water phase.

[4] = In vivo pharmacokinetic study, intravenous administration; parameters: species or system rabbit; conditions: rabbits, IV of 4.8 mg/kg SR-FP, enantiomer measured in plasma
Experimental: A certain amount of FP was dissolved in a mixed solution of sterile water and Tween-80 at 2.0 mg/mL. The fresh intravenous solution was prepared just before intravenous administration.
Six male rabbits weighing 2.5 kg were selected for IV. A capacity of 4.8 mg/kg FP (0.2 g FP was dissolved in a mixed solution of pure water and Tween80) was administered to the one ear vein of rabbit, the other ear vein of rabbit was phlebotomized about 0.5 mL at 5, 10, 15, 30 min and 1, 2, 3, 4, 6, 8, 10, 12 h. The blood samples were centrifuged at 4000 rpm for 10 min and kept at –80 °C.
(§1) After being thawed and equilibrated to room temperature, an aliquot (100 μL) of plasma sample was spiked with […] (10 μL) of 40.0 μg/mL and 400 μL methanol. The samples were vortexed for 5 min and followed by centrifugation at 16,000 rpm for 10 min at 25 °C. After centrifugation, the supernatant was transferred to a clean tube and evaporated to dryness at 40 °C under a gentle stream of nitrogen. The dried samples were reconstituted with 100 μL mobile phase, vortexed and centrifuged before analysis.
(§2) Pharmacokinetic parameters were calculated using WinNonlin® software (Pharsight Corporation, San Diego, CA, USA) based on noncompartmental model, including the maximal plasma drug concentration (Cmax), the time to reach Cmax (Tmax) which were obtained from the observed data, the area under the time–concentration curve from time 0 to time t (AUC0–t) of distribution which was calculated using the linear trapezoidal rule, the mean residence time (MRT), the plasma clearance (Cl) and the apparent volume(V). Enhancement factor (Ef) was calculated from the following equation: Ef=AUC0−t(with enhancer)/AUC0−t(without enhancer)
The concentrations of drugs in the receptor medium or rabbit plasma were determined using a validated HPLC method. The HPLC system was equipped with a Shimadzu HPLC apparatus, including an LC-20AT pump, a SIL20A syringe, an SPD-20A detector, and a CTO-20A column oven. The propylparaben was used as an internal standard, and the flow rate of chromatographic analysis was set 1.0 mL/min. For in vitro analysis of SR-FP, thermo (USA) C18 column (150 mm × 4.6 mm, 5 μm particle) maintained at 40 °C was used to elute SR-FP, the mobile phase was used methanol and 1% aqueous glacial acetic acid (60:40, v/v) and the wavelength was set at 247 nm. The HPLC conditions of S-FP and R-FP were as follows: The column was CHIRALPAK®IA (4.6 mm × 250 mml, 5 μm particle diameter) of DAOCEL (Shanghai, China). The mobile phase consisted of acetonitrile and trifluoroacetic acid (0.05%, 50:50, v/v), the wavelength was set at 254 nm. […]

[5] = In vivo pharmacokinetic study, transdermal patch administration; parameters: species or system rabbit; conditions: rabbits; for chiral inversion to the other enantiomer in vivo: patch loaded with individual enantiomer, plasma (Figure 2(F)); for V of R-FP / V of S-FP: SR-FP patch with 5% enhancer or without (control); for V of R-FP: analyte R-; for V of S-FP: analyte S-
Experimental: Thirty-six male rabbits weighing 2.5 kg were divided into six groups, and the back skin was intact without erythema. For patch administration studies, patches without or with enhancers (120 mg/kg) were stuck to the shaved area of the rabbits. They were administered as follows: (1) control group: only the SR-FP; (2) enhancer group A: prepared SR-FP patch with 5% d-4-TER; (3) enhancer group B: prepared SR-FP patch with 5% d-4-T-dC18; (4) enhancer group C: prepared SR-FP patch with 5% l-4-T-dC18; (5) enhancer group D: prepared S-FP patch with 5% d-4-T-dC18; (6) enhancer group E: prepared R-FP patch with 5% d-4-T-dC18. In order to prevent the patches fallen off, gauze and medical tape were used to fix the patches. The blood from ear vein of rabbit was collected 0.5 mL at 0.5, 1, 2, 4, 6, 8, 12, 16, 20, 24, 26, 28, 30, 32, 36 and 48 h, and the patch was removed after 24 h, then the residual drug was wiped with physiological saline. The sample was processed by the same method as IV. All animal studies were carried out in accordance with the NIH Guidelines for the Care and Use of Laboratory Animals and were also approved by the Life Science Research Center of North China University of Science and Technology.
as §1, §2
The concentrations of drugs in the receptor medium or rabbit plasma were determined using a validated HPLC method. The HPLC system was equipped with a Shimadzu HPLC apparatus, including an LC-20AT pump, a SIL20A syringe, an SPD-20A detector, and a CTO-20A column oven. The propylparaben was used as an internal standard, and the flow rate of chromatographic analysis was set 1.0 mL/min. For in vitro analysis of SR-FP, thermo (USA) C18 column (150 mm × 4.6 mm, 5 μm particle) maintained at 40 °C was used to elute SR-FP, the mobile phase was used methanol and 1% aqueous glacial acetic acid (60:40, v/v) and the wavelength was set at 247 nm. The HPLC conditions of S-FP and R-FP were as follows: The column was CHIRALPAK®IA (4.6 mm × 250 mml, 5 μm particle diameter) of DAOCEL (Shanghai, China). The mobile phase consisted of acetonitrile and trifluoroacetic acid (0.05%, 50:50, v/v), the wavelength was set at 254 nm. For in vivo analysis of S-FP and R-FP, the mobile phase consisted of acetonitrile and trifluoroacetic acid (0.05%, 35:65, v/v), and other conditions were the same to in vitro analysis.
Absolute bioavailability (F) was calculated by the following equation: F=AUCpatch·Dosei.v./AUCi.v.·Dosepatch

## C[C@H](C(=O)O)c1ccc(-c2ccccc2)c(F)c1 [S-FP]
[1]
  Tlag of S-FP: 3.82 h
  Js of S-FP: 2.65 ± 0.29 μg/cm^2/h
[2]
  solubility: 46.39 ± 4.30 µg/mL (≈ 190 µM)
[3]
  logP: 1.86 ± 0.05
[4]
  Cl: 0.30 ± 0.02 L/h
  MRT: 2.04 ± 0.23 h
[5]
  chiral inversion to the other enantiomer in vivo: had not been observed

## CC1=CCC(O)(C(C)C)CC1 (stereo not drawn) [d-4-TER, d-4-terpineol, reference compound]
[1]; 3% enhancer level (w/w)
  cumulative transport of SR-FP at 24 h: 168.14 ± 19.95 μg/cm^2
[1]; 5% enhancer level (w/w)
  cumulative transport of SR-FP at 24 h: 266.01 ± 58.81 μg/cm^2
[1]
  ER (Q24h with enhancer/Q24h without enhancer) for R-FP: 2.74
  Tlag of R-FP: 3.58 h
  Js of R-FP: 7.34 ± 2.51 μg/cm^2/h
  ER (Q24h with enhancer/Q24h without enhancer) for S-FP: 2.97
  Tlag of S-FP: 2.45 h
  Js of S-FP: 7.60 ± 1.47 μg/cm^2/h
  ER (Q24h with enhancer/Q24h without enhancer) for SR-FP: 2.16
  Tlag of SR-FP: 3.60 h
  Js of SR-FP: 14.43 ± 3.62 μg/cm^2/h
[5]
  V of R-FP: 251.59 ± 56.91 L
  V of S-FP: 99.27 ± 18.81 L

## CCCCCCCCC=CCCCCCCCC(=O)OC1(C(C)C)CC=C(C)CC1 (stereo not drawn) [d-4-T-dC18, d-4-methyl-1-(1-methylethyl)-3-cyclohexen-1-yl octadec-9-enoate]
[1]
  ER (Q24h with enhancer/Q24h without enhancer) for R-FP: 4.43
  Tlag of R-FP: 3.95 h
  Js of R-FP: 11.81 ± 1.23 μg/cm^2/h
  ER (Q24h with enhancer/Q24h without enhancer) for S-FP: 4.13
  Tlag of S-FP: 4.08 h
  Js of S-FP: 10.99 ± 2.17 μg/cm^2/h
  ER (Q24h with enhancer/Q24h without enhancer) for SR-FP: 2.77
  Tlag of SR-FP: 1.85 h
  Js of SR-FP: 17.57 ± 4.13 μg/cm^2/h
[5]
  V of R-FP: 139.60 ± 34.29 L
  V of S-FP: 92.94 ± 28.69 L

## C[C@@H](C(=O)O)c1ccc(-c2ccccc2)c(F)c1 [R-FP]
[1]
  Tlag of R-FP: 2.43 h
  Js of R-FP: 2.43 ± 0.18 μg/cm^2/h
[2]
  solubility: 49.82 ± 1.31 µg/mL (≈ 204 µM)
[3]
  logP: 1.83 ± 0.09
[4]
  Cl: 0.52 ± 0.03 L/h
  MRT: 1.84 ± 0.15 h
[5]
  chiral inversion to the other enantiomer in vivo: S-FP could be detected

## CC(C(=O)O)c1ccc(-c2ccccc2)c(F)c1 (stereo not shown) [SR-FP, Flurbiprofen]
[1]; 0% enhancer level (w/w)
  cumulative transport of SR-FP at 24 h: 122.93 ± 8.02 μg/cm^2
[1]
  Tlag of SR-FP: 3.31 h
  Js of SR-FP: 5.54 ± 0.37 μg/cm^2/h
[2]
  solubility at 48 h: 89.1 ± 5.48 µg/mL (≈ 365 µM)
[3]; read-out: logP
  logP: 2.28 ± 0.04

## CCCCCCCCC=CCCCCCCCC(=O)OC1(C(C)C)CC=C(C)CC1 (stereo not drawn) [l-4-T-dC18, l-4-methyl-1-(1-methylethyl)-3-cyclohexen-1-yl octadec-9-enoate]
[1]; enhancer at same molar concentration as 5% 4-TER
  Q24h of SR-FP: 547.20 ± 35.94 μg/cm^2
[1]
  ER (Q24h with enhancer/Q24h without enhancer) for R-FP: 4.6
  Tlag of R-FP: 3.68 h
  Js of R-FP: 12.04 ± 2.51 μg/cm^2/h
  ER (Q24h with enhancer/Q24h without enhancer) for S-FP: 4.98
  Tlag of S-FP: 3.89 h
  Js of S-FP: 12.98 ± 3.51 μg/cm^2/h
  ER (Q24h with enhancer/Q24h without enhancer) for SR-FP: 4.45
  Tlag of SR-FP: 3.61 h
  Js of SR-FP: 20.53 ± 3.11 μg/cm^2/h
[5]
  V of R-FP: 65.31 ± 28.90 L
  V of S-FP: 68.51 ± 17.97 L
